Laboratory results as given in patent US20100048640A1, “HYDRAZIDE COMPOUND AND HARMFUL ARTHROPOD-CONTROLLING AGENT CONTAINING THE SAME” (Sumitomo Chemical Company, Limited, priority 2007, published 2010).

Assays:
Format in all cases: in vivo
[1] = test system: summer fruit tortrix (Adoxophyes orana fasciata); test: Test Example 4: apple seedling spray, summer fruit tortrix larvae, controlling value; details: 168 h, flowable formulation, 20 mL on apple seedling, first-instar larvae, seven days after spraying; for pest or weed control at 500 ppm: 500 ppm active ingredient; for pest or weed control at 200 ppm: 200 ppm active ingredient
Protocol: Thus, test spray solutions were prepared. On the other hand, 20 mL of the test spray solution as described above was sprayed to an apple seedling (28 day-old seeding; tree height: about 15 cm) planted in a plastic cup. The apple seedling was air-dried to such an extent that the spray solution sprayed on the apple seedling was dried, and about 30 first-instar larvae of summer fruit tortrix (Adoxophyes orana fasciata) were released. Seven days after spraying, the number of worms surviving on the apple seedling was counted, and a controlling value was calculated by the following equation. Controlling value(%)={1−(Cb×Tai)/(Cai×Tb))×100

[2] = test system: cotton aphids (Aphis gossypii); test: Test Example 2: cucumber foliar spray, cotton aphids, controlling value; details: 144 h, flowable formulation, 20 mL/cup on cucumber, six days after spraying; for pest or weed control at 500 ppm: 500 ppm active ingredient; for pest or weed control at 200 ppm: 200 ppm active ingredient
Protocol: Thus, test spray solutions were prepared. On the other hand, cucumber was planted in a polyethylene cup, and was grown until the first true leaf was developed. About 30 cotton aphids (Aphis gossypii) were placed on the cucumber. One day after, the test spray solution as described above was sprayed in an amount of 20 mL/cup on the cucumber. Six days after spraying, the number of cotton aphids was counted, and a controlling value was calculated by the following equation. Controlling value(%)={1−(Cb×Tai)/(Cai×Tb))×100

[3] = test system: common cutworm (Spodoptera litura); test: Test Example 3: cabbage foliar spray, common cutworm larvae, controlling value; details: 96 h, flowable formulation, 20 mL/cup on cabbage, fourth-instar larvae, after 4 days; for pest or weed control at 500 ppm: 500 ppm active ingredient; for pest or weed control at 200 ppm: 200 ppm active ingredient
Protocol: Thus, test spray solutions were prepared. On the other hand, cabbage was planted in a polyethylene cup, and grown until the third true leaf or the fourth true leaf was developed. The test spray solution as described above was sprayed in an amount of 20 mL/cup on the cabbage. After the spray solution sprayed on the cabbage was dried, 10 fourth-instar larvae of common cutworm (Spodoptera litura) were placed on the cabbage. After 4 days, the number of common cutworm surviving on the cabbage leaves was counted, and a controlling value was calculated by the following equation. Controlling value(%)={1−(Cb×Tai)/(Cai×Tb))×100

[4] = test system: yellow citrus thrips (Franklinella occidentalis); test: Test Example 5: cucumber leaf spray, yellow citrus thrips larvae, controlling value; details: 168 h, flowable formulation, 20 mL/cup on cucumber, cut first true leaf, 20 larvae, leaf area damaged, seven days after spraying; for pest or weed control at 500 ppm: 500 ppm active ingredient; for pest or weed control at 200 ppm: 200 ppm active ingredient
Protocol: Thus, test spray solutions were prepared. On the other hand, cucumber was planted in a polyethylene cup, and was grown until the first true leaf was developed. The test spray solution as described above was sprayed in an amount of 20 mL/cup on the cucumber. After the spray solution on the cucumber was dried, the first true leaf was cut and then placed on a filter paper (diameter: 70 mm) containing water in a polyethylene cup (diameter: 110 mm). On the cucumber leaf, 20 larvae of yellow citrus thrips ([…] occidentalis) were released, and the polyethylene cup was capped. Seven days after spraying, the percentage of leaf area damaged by the insect was examined and a controlling value was calculated by the following equation. Controlling value(%)={1-(Cb×Tai)/(Cai×Tb))×100

[5] = test system: diamondback moths (Plutella xylostella); test: Test Example 1: cabbage foliar spray, diamondback moth larvae, controlling value; details: 120 h, flowable formulation, 20 mL/cup on cabbage, third-instar larvae, after 5 days; for pest or weed control at 500 ppm: 500 ppm active ingredient; for pest or weed control at 200 ppm: 200 ppm active ingredient
Protocol: Thus, test spray solutions were prepared. On the other hand, cabbage was planted in a polyethylene cup, and grown until the third true leaf or the fourth true leaf was developed. The test spray solution as described above was sprayed in an amount of 20 mL/cup on the cabbage. After the spray solution on the cabbage was dried, 10 third-instar larvae of diamondback moths (Plutella xylostella) were placed on the cabbage. After 5 days, the number of diamondback moths was counted, and the controlling value was calculated by the following equation. Controlling value(%)={1−(Cb×Tai)/(Cai×Tb))×100 wherein Cb: the number of worms in an untreated group before treatment; Cai: the number of worms in an untreated group on observation; Tb: the number of worms in a treated group before treatment; Tai: the number of worms in a treated group on observation.

Row | Compound | pest or weed control at 500 ppm [1] | pest or weed control at 500 ppm [2] | pest or weed control at 500 ppm [3] | pest or weed control at 500 ppm [4] | pest or weed control at 500 ppm [5] | pest or weed control at 200 ppm [1] | pest or weed control at 200 ppm [2] | pest or weed control at 200 ppm [3] | pest or weed control at 200 ppm [5] | pest or weed control at 200 ppm [4]
1 | COC(=O)N(NC(=O)c1cc(Br)cc(Br)c1NC(=O)c1cc(Br)nn1-c1ncccc1Cl)c1ccccn1 [1-5] | 100% | ≥ 90% | ≥ 80% | 100% | 100% | – | – | – | – | –
2 | C=CCN(NC(=O)OC)C(=O)c1cc(Cl)cc(Cl)c1NC(=O)c1cc(Br)nn1-c1ncccc1Cl [1-9] | 100% | ≥ 90% | ≥ 80% | 100% | 100% | – | – | – | – | –
3 | COC(=O)NN(Cc1ccccc1)C(=O)c1cc(Cl)cc(C)c1NC(=O)c1cc(Br)nn1-c1ncccc1Cl [1-57] | – | ≥ 90% | ≥ 80% | 100% | 100% | – | – | – | – | –
4 | COC(=O)N(NC(=O)c1cc(Cl)cc(C)c1NC(=O)c1cc(Br)nn1-c1ncccc1Cl)c1ccccn1 [1-6] | 100% | ≥ 90% | ≥ 80% | 100% | 100% | – | – | – | – | –
5 | COC(=O)N(NC(=O)c1cc(Cl)cc(C)c1NC(=O)c1cc(Br)nn1-c1ncccc1Cl)C1CCCCC1 [1-60] | 100% | – | ≥ 80% | – | 100% | – | – | – | – | –
6 | C=CCN(NC(=O)OC)C(=O)c1cc(Cl)cc(C)c1NC(=O)c1cc(Br)nn1-c1ncccc1Cl [1-11] | – | – | – | – | – | 100% | ≥ 90% | ≥ 80% | 100% | –
7 | COC(=O)NN(CC=C(Cl)Cl)C(=O)c1cc(Br)cc(Br)c1NC(=O)c1cc(Br)nn1-c1ncccc1Cl [1-63] | 100% | ≥ 90% | ≥ 80% | 100% | 100% | – | – | – | – | –
8 | C=CCN(NC(=O)OC)C(=O)c1cc(Br)cc(Br)c1NC(=O)c1cc(Br)nn1-c1ncccc1Cl [1-7] | 100% | ≥ 90% | ≥ 80% | 100% | 100% | – | – | – | – | –
9 | C=CCN(NC(=O)c1cc(Cl)cc(C)c1NC(=O)c1cc(Br)nn1-c1ncccc1Cl)C(=O)OC [1-12] | 100% | ≥ 90% | ≥ 80% | 100% | 100% | – | – | – | – | –
10 | C=CCN(NC(=O)c1cc(Cl)cc(Cl)c1NC(=O)c1cc(Br)nn1-c1ncccc1Cl)C(=O)OC [1-10] | 100% | ≥ 90% | ≥ 80% | 100% | 100% | – | – | – | – | –
11 | CCN(C(=O)c1cc(Br)cc(Br)c1NC(=O)c1cc(Br)nn1-c1ncccc1Cl)N(CC#N)C(=O)OC [1-1] | 100% | ≥ 90% | ≥ 80% | 100% | 100% | – | – | – | – | –
12 | COC(=O)NN(CCO)C(=O)c1cc(Br)cc(Br)c1NC(=O)c1cc(Br)nn1-c1ncccc1Cl [1-61] | – | ≥ 90% | ≥ 80% | 100% | 100% | – | – | – | – | –
13 | COC(=O)N(CC=C(Cl)Cl)NC(=O)c1cc(Br)cc(Br)c1NC(=O)c1cc(Br)nn1-c1ncccc1Cl [1-64] | 100% | ≥ 90% | ≥ 80% | 100% | 100% | – | – | – | – | –
14 | COC(=O)N(NC(=O)c1cc(Br)cc(Br)c1NC(=O)c1cc(Br)nn1-c1ncccc1Cl)C1CCCCC1 [1-59] | – | ≥ 90% | ≥ 80% | – | 100% | – | – | – | – | –
15 | COC(=O)N(Cc1ccccc1)NC(=O)c1cc(Cl)cc(C)c1NC(=O)c1cc(Br)nn1-c1ncccc1Cl [1-58] | – | ≥ 90% | ≥ 80% | 100% | 100% | – | – | – | – | –
16 | C=CCN(NC(=O)c1cc(Br)cc(Br)c1NC(=O)c1cc(Br)nn1-c1ncccc1Cl)C(=O)OC [1-8] | 100% | ≥ 90% | ≥ 80% | 100% | 100% | – | – | – | – | –
17 | C#CCN(NC(=O)OC)C(=O)c1cc(Br)cc(Br)c1NC(=O)c1cc(Br)nn1-c1ncccc1Cl [1-31] | – | – | – | – | – | 100% | ≥ 90% | ≥ 80% | 100% | 100%
18 | C#CCN(NC(=O)c1cc(Br)cc(Br)c1NC(=O)c1cc(Br)nn1-c1ncccc1Cl)C(=O)OC [1-32] | – | – | – | – | – | 100% | ≥ 90% | ≥ 80% | 100% | 100%
